Results reported in PMC11114221, “A pattern recognition artificial olfactory system based on human olfactory receptors and organic synaptic devices” (Science Advances, 2024).

Key:
Test in all cases: tryptophan fluorescence quenching
Assay type in all cases: binding
Conditions in all cases: receptor nanodiscs 500 nM; 20 mM Hepes, 100 mM NaCl, pH 8.0
[1] = target: T1, hOR51E2 (Homo sapiens, UniProt Q9H255)
T1 construct: gene OR51E2; E. coli SuptoxR (Rosetta 2 (DE3) with RraA); ~38 kDa
T1 sequence (Q9H255 1-320): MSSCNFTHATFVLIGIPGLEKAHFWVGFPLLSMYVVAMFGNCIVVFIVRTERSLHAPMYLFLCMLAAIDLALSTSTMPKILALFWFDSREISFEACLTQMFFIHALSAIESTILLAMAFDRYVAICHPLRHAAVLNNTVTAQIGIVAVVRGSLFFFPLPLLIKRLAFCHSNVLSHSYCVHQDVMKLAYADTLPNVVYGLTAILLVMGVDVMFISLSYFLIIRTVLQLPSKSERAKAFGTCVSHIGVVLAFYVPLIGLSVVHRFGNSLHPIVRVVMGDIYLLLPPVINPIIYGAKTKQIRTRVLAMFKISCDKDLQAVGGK

[2] = target: T2, hOR52D1 (Homo sapiens, UniProt Q9H346)
T2 construct: gene OR52D1; E. coli SuptoxR (Rosetta 2 (DE3) with RraA); ~38 kDa
T2 sequence (Q9H346 1-318): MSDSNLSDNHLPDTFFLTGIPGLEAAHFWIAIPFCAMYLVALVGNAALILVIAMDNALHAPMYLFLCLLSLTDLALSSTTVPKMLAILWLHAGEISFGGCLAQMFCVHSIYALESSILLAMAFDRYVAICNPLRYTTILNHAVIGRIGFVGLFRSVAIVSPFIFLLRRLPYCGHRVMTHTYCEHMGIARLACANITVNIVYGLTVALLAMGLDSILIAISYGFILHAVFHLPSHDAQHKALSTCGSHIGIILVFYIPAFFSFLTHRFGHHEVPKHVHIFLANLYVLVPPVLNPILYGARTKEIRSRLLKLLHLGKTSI

[3] = target: T3, hOR51E1 (Homo sapiens, UniProt Q8TCB6)
T3 construct: gene OR51E1; E. coli SuptoxR (Rosetta 2 (DE3) with RraA); ~38 kDa
T3 sequence (Q8TCB6 1-318): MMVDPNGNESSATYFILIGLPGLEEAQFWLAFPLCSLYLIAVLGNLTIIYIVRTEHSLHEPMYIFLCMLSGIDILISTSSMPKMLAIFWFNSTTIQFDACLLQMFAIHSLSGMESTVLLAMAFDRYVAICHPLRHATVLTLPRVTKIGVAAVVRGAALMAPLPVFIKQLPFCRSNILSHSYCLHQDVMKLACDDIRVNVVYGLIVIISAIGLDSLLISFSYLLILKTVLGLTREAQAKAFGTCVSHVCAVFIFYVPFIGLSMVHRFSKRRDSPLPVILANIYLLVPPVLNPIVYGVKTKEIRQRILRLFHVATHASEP

CCCC(=O)O [BA, butyric acid]
∆F/F0 (%) [1]: each hOR ND displayed distinct binding affinities toward the SCFAs | ∆F/F0 (%) [2]: each hOR ND displayed distinct binding affinities toward the SCFAs | ∆F/F0 (%) [3]: each hOR ND displayed distinct binding affinities toward the SCFAs

CCCCCC(=O)O [HA, hexanoic acid]
∆F/F0 (%) [1]: each hOR ND displayed distinct binding affinities toward the SCFAs | ∆F/F0 (%) [2]: each hOR ND displayed distinct binding affinities toward the SCFAs | ∆F/F0 (%) [3]: each hOR ND displayed distinct binding affinities toward the SCFAs

CCC(=O)O [PA, propionic acid]
∆F/F0 (%) [1]: each hOR ND displayed distinct binding affinities toward the SCFAs | ∆F/F0 (%) [2]: each hOR ND displayed distinct binding affinities toward the SCFAs | ∆F/F0 (%) [3]: each hOR ND displayed distinct binding affinities toward the SCFAs

CCCCC(=O)O [VA, valeric acid]
∆F/F0 (%) [1]: each hOR ND displayed distinct binding affinities toward the SCFAs | ∆F/F0 (%) [2]: each hOR ND displayed distinct binding affinities toward the SCFAs | ∆F/F0 (%) [3]: each hOR ND displayed distinct binding affinities toward the SCFAs
